Where a name gives a salt, the structure may show the parent alone. Read-outs that look alike come from different tables or passages of the source.
What was measured:
[1] = test system: HEK293 cells; type: cell-based; settings: detergent 0.5% w/v, then 0.2% DB
[2] = test system: HEK293 cells; assay: CHAPS evaluated at larger scale (1 L bioreactor); type: cell-based; settings: final concentration 0.5% w/v
Protocol: CHAPS was identified as a potential detergent candidate in the small scale screens and was evaluated at a larger scale (1 L bioreactor) at a final concentration of 0.5% w/v.

[3] = test system: Murine leukemia virus (MuLV)
[4] = test system: pseudo rabies virus (PRV)
[5] = test system: HEK293 cells; assay: CTAB modifier screen: vg recovery in clarified lysate and loose resin affinity elution; type: cell-based; settings: LCD, 0.5% w/v CTAB
Protocol: The modifiers were selected based on their potential to interfere with and inhibit non-specific binding of rAAV3B capsids to heparin sulfate proteoglycan receptors on cells and cell lysis debris. Using 10 mL cell culture aliquots, modifiers were delivered to the culture at the concentrations shown in Table 3 and mixed for 10 min at room temperature (RT) prior to addition of the CTAB lysis detergent. CTAB was added to a final concentration of 0.5% w/v. Fold improvement in productivity was calculated by dividing total vector genomes (vgs) measured by qPCR quantification of copies of the vector transgene in product produced by a test condition over total vgs produced using 0.5% octoxynol-9 and 0.2% DB as the control lysis and flocculation condition. Total vgs were measured in the clarified lysate and in eluate produced by loose resin affinity purification of the clarified lysate. Conditions which produced greater than 2-fold improvement are highlighted in bold in Table 3.

[6] = cited from earlier work
[7] = No modifier, LCD (approximately 12E+6 cells/mL), rAAV3B vector
[8] = 0.5% octoxynol-9, 90 mins, value from large volume plating
[9] = modifier 80 μM CSE (chondroitin sulfate E)
[10] = modifier 80 μM SOS (sucrose octasulfate)
[11] = modifier 400 ug/mL low molecular weight (LMW) Dextran
[12] = 0.025% CTAB, 90 mins, value from titer plate
[13] = 0.05% CTAB, 90 mins, value from large volume plating
[14] = 0.25% CTAB, 90 mins, value from large volume plating

CCCCCCCCCCCCOS(=O)(=O)[O-].[Na+] [SDS, sodium dodecyl sulfate]
Fold improvement over octoxynol-9 and DB control (capsid recovery in clarified lysate) ([1]; 0.2M Arginine modifier, LCD): 0.9 fold
Fold improvement over octoxynol-9 and DB control (capsid recovery in clarified lysate) ([1]; 0.7M NaCl modifier, LCD): 0.2 fold
Fold improvement over octoxynol-9 and DB control (capsid recovery in clarified lysate) [1, 7]: 0.1 fold

CCCCCCCCCCCC(=O)OCCOCCOCCOCCOCCOCCOCCOCCOCCOCCOCCOCCOCCOCCOCCOCCOCCOCCOCCOCCOCC(OCCOCCOCCOCCOCCOCCOCCOCCOCCOCCOCCOCCOCCOCCOCCOCCOCCOCCOCCOCCO)C1OCC(OCCOCCOCCOCCOCCOCCOCCOCCOCCOCCOCCOCCOCCOCCOCCOCCOCCOCCOCCOCCO)C1OCCOCCOCCOCCOCCOCCOCCOCCOCCOCCOCCOCCOCCOCCOCCOCCOCCOCCOCCOCCO (stereo not shown) [PS20, polysorbate 20]
Fold improvement over octoxynol-9 and DB control (capsid recovery in clarified lysate) ([1]; 0.2M Arginine modifier, LCD): 1.8 fold
Fold improvement over octoxynol-9 and DB control (capsid recovery in clarified lysate) ([1]; 0.7M NaCl modifier, LCD): 0.7 fold
Fold improvement over octoxynol-9 and DB control (capsid recovery in clarified lysate) [1, 7]: 0.5 fold

C[C@H](CCC(=O)NCCC[N+](C)(C)CCCS(=O)(=O)[O-])[C@H]1CC[C@H]2[C@@H]3[C@H](O)C[C@@H]4C[C@H](O)CC[C@]4(C)[C@H]3C[C@H](O)[C@]12C [CHAPS, 3-[(3-cholamidopropyl)dimethylammonio]-1-propanesulfonate]
Fold improvement over octoxynol-9 and DB control (capsid recovery in clarified lysate) ([1]; 0.2M Arginine modifier, LCD): 1.0 fold
Fold improvement over octoxynol-9 and DB control (capsid recovery in clarified lysate) ([1]; 0.7M NaCl modifier, LCD): 1.6 fold
Fold improvement over octoxynol-9 and DB control (capsid recovery in clarified lysate) [1, 7]: 2.1 fold
recovery improvement at larger scale [2]: failed to provide the same recovery improvement at large scale as at small scale

C[C@H](CCC(=O)O)[C@H]1CC[C@H]2[C@@H]3CC[C@@H]4C[C@H](O)CC[C@]4(C)[C@H]3C[C@H](O)[C@]12C [DOC, deoxycholic acid sodium salt]
Fold improvement over octoxynol-9 and DB control (capsid recovery in clarified lysate) [1, 7]: 0.1 fold

Octoxynol-9 [reference compound]
Minimum reduction values Run 1 [3]: ≥4.43 ± 0.25 Log
Minimum reduction values Run 2 [3]: ≥4.49 ± 0.27 Log
Process demonstrated viral removal or inactivation (Log reduction >1) [3]: Demonstrated inactivation
Process demonstrated viral removal or inactivation (Log reduction >1) ([4]; 0.5% octoxynol-9, 90 mins): Demonstrated inactivation
Minimum reduction values Run 1 [4, 8]: ≥4.43 ± 0.28 Log
Minimum reduction values Run 2 [4, 8]: ≥4.19 ± 0.18 Log

CCCCCCCCCCCC(=O)N(C)CC(=O)[O-].[Na+] [sarkosyl]
Fold improvement over octoxynol-9 and DB control (capsid recovery in clarified lysate) [1, 7]: 0.3 fold

CCCCCCCCCCCCCCCC[N+](C)(C)C.[Br-] [CTAB, cetyltrimethylammonium bromide]
Fold improvement over octoxynol-9 and DB control (capsid recovery in clarified lysate) ([1]; No modifier, HCD (approximately 18E+6 cells/mL), rAAV3B vector): 2.8 fold
Fold improvement over octoxynol-9 and DB control (capsid recovery in clarified lysate) [1, 7]: 1.6 fold
fold productivity over octoxynol-9/DB control - affinity elution [5, 9]: 0.05 fold
fold productivity over octoxynol-9/DB control - clarified lysate [5, 9]: 1.22 fold
fold productivity over octoxynol-9/DB control - affinity elution [5, 10]: 3.20 fold
fold productivity over octoxynol-9/DB control - clarified lysate [5, 10]: 2.61 fold
fold productivity over octoxynol-9/DB control - affinity elution [5, 11]: 1.20 fold
fold productivity over octoxynol-9/DB control - clarified lysate [5, 11]: 0.14 fold
fold productivity over octoxynol-9/DB control - affinity elution ([5]; modifier 6 mM ZnSO4): 2.41 fold
fold productivity over octoxynol-9/DB control - clarified lysate ([5]; modifier 6 mM ZnSO4): 1.86 fold
fold productivity over octoxynol-9/DB control - affinity elution ([5]; modifier 50 mM MgSO4): 7.77 fold
fold productivity over octoxynol-9/DB control - clarified lysate ([5]; modifier 50 mM MgSO4): 3.21 fold
fold productivity over octoxynol-9/DB control - affinity elution ([5]; no modifier): 3.81 fold
fold productivity over octoxynol-9/DB control - clarified lysate ([5]; no modifier): 2.81 fold
Process demonstrated viral removal or inactivation (Log reduction >1) ([4]; 0.025% CTAB, 90 mins): Did not demonstrate inactivation
Minimum reduction values Run 1 [4, 12]: 0.71 ± 0.44 Log
Minimum reduction values Run 2 [4, 12]: 0.71 ± 0.39 Log
Process demonstrated viral removal or inactivation (Log reduction >1) ([4]; 0.05% CTAB, 90 mins): Demonstrated inactivation
Minimum reduction values Run 1 [4, 13]: ≥4.31 ± 0.27 Log
Minimum reduction values Run 2 [4, 13]: ≥4.67 ± 0.21 Log
Process demonstrated viral removal or inactivation (Log reduction >1) ([4]; 0.25% CTAB, 90 mins): Demonstrated inactivation
Minimum reduction values Run 1 [4, 14]: ≥4.73 ± 0.25 Log
Minimum reduction values Run 2 [4, 14]: ≥4.73 ± 0.31 Log
critical micelle concentration ([6]; in water in the presence of MgSO4): about 0.63 mM
critical micelle concentration ([6]; in water): about 1.04 mM
